According to the supplement of paper PMC10307832:

Key:
Assay in all cases: relative viability (nuclei count vs DMSO), 5 days (fraction); higher = more cells survive
DM3189 + Luminespib = compound: C1CN(CCN1)C2=CC=C(C=C2)C3=CN4C(=C(C=N4)C5=CC=NC6=CC=CC=C56)N=C3 [DM3189] + CCNC(=O)c1noc(-c2cc(C(C)C)c(O)cc2O)c1-c1ccc(CN2CCOCC2)cc1 [Luminespib] (partner 0.01 µM)
Summary of the method: (§1)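 Relative viability is defined as nuclei in treated wells over nuclei in vehicle wells. Duplicate plates were run and medians reported. Lung cancer cell lines in 1536-well plates were dosed by pin tool one day after seeding, with one drug or with a fixed anchor-drug dose plus five library-drug doses (not always all listed) in √10 steps, and nuclei were counted after 5 days.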

DM3189 + Trametinib = compound: C1CN(CCN1)C2=CC=C(C=C2)C3=CN4C(=C(C=N4)C5=CC=NC6=CC=CC=C56)N=C3 [DM3189] + CC(=O)Nc1cccc(-n2c(=O)n(C3CC3)c(=O)c3c(Nc4ccc(I)cc4F)n(C)c(=O)c(C)c32)c1 [Trametinib] (partner 0.02 µM)
Summary of the method: as §1

DM3189 + Lapatinib = compound: C1CN(CCN1)C2=CC=C(C=C2)C3=CN4C(=C(C=N4)C5=CC=NC6=CC=CC=C56)N=C3 [DM3189] + CS(=O)(=O)CCNCc1ccc(-c2ccc3ncnc(Nc4ccc(OCc5cccc(F)c5)c(Cl)c4)c3c2)o1 [Lapatinib] (partner 2 µM)
Summary of the method: as §1

DM3189 + Pictilisib = compound: C1CN(CCN1)C2=CC=C(C=C2)C3=CN4C(=C(C=N4)C5=CC=NC6=CC=CC=C56)N=C3 [DM3189] + CS(=O)(=O)N1CCN(Cc2cc3nc(-c4cccc5[nH]ncc45)nc(N4CCOCC4)c3s2)CC1 [Pictilisib] (partner 1 µM)
Summary of the method: as §1

DM3189 + Palbociclib = compound: C1CN(CCN1)C2=CC=C(C=C2)C3=CN4C(=C(C=N4)C5=CC=NC6=CC=CC=C56)N=C3 [DM3189] + CC(=O)c1c(C)c2cnc(Nc3ccc(N4CCNCC4)cn3)nc2n(C2CCCC2)c1=O [Palbociclib] (partner 0.5 µM)
Summary of the method: as §1

Cell Line | relative viability (DM3189 + Luminespib; first compound 0.08 µM) | relative viability (DM3189 + Luminespib; first compound 0.253 µM) | relative viability (DM3189 + Luminespib; first compound 0.8 µM) | relative viability (DM3189 + Luminespib; first compound 2.53 µM) | relative viability (DM3189 + Trametinib; first compound 0.08 µM) | relative viability (DM3189 + Trametinib; first compound 0.8 µM) | relative viability (DM3189 + Trametinib; first compound 2.53 µM) | relative viability (DM3189 + Lapatinib; first compound 0.08 µM) | relative viability (DM3189 + Lapatinib; first compound 0.253 µM) | relative viability (DM3189 + Lapatinib; first compound 0.8 µM) | relative viability (DM3189 + Lapatinib; first compound 2.53 µM) | relative viability (DM3189 + Pictilisib; first compound 0.08 µM) | relative viability (DM3189 + Pictilisib; first compound 0.253 µM) | relative viability (DM3189 + Pictilisib; first compound 0.8 µM) | relative viability (DM3189 + Pictilisib; first compound 2.53 µM) | relative viability (DM3189 + Palbociclib; first compound 0.08 µM) | relative viability (DM3189 + Palbociclib; first compound 0.8 µM) | relative viability (DM3189 + Palbociclib; first compound 2.53 µM) | relative viability (DM3189 + Trametinib; first compound 0.253 µM) | relative viability (DM3189 + Palbociclib; first compound 0.253 µM)
EKVX | 0.96 | 0.874 | 0.908 | 0.962 | 0.325 | 0.328 | 0.338 | 0.201 | 0.183 | 0.228 | 0.245 | 0.483 | 0.429 | 0.413 | 0.446 | 0.402 | 0.291 | 0.393 | – | –
EMC-BAC-2 | 1.24 | 1.07 | 1.06 | 1.25 | 0.925 | 0.891 | 1.04 | 0.894 | 0.888 | 0.859 | 0.934 | 0.587 | 0.538 | 0.507 | 0.54 | 0.515 | 0.484 | 0.525 | 0.877 | 0.494
EPLC-272H | 0.738 | 0.317 | 0.25 | 0.281 | 0.285 | 0.267 | 0.322 | 1.1 | 0.842 | 0.933 | 0.762 | 0.322 | 0.347 | 0.276 | 0.27 | 0.321 | 0.343 | 0.341 | 0.326 | 0.318
H3255 | 1.09 | 0.957 | 0.799 | 0.951 | 0.789 | 0.513 | 0.732 | 0.259 | 0.267 | 0.224 | 0.277 | 0.585 | 0.511 | 0.446 | 0.529 | 0.37 | 0.308 | 0.329 | 0.731 | 0.313
HARA | 0.865 | 0.784 | 0.55 | 1.15 | 0.674 | 0.712 | 0.944 | 0.93 | 0.625 | 0.6 | 0.856 | 0.645 | 0.362 | 0.288 | 0.35 | 0.288 | 0.225 | 0.263 | 0.736 | 0.194
HCC-15 | 0.355 | 0.399 | 0.391 | 0.369 | 0.447 | 0.406 | 0.414 | 0.983 | 0.843 | 0.81 | 0.816 | 0.764 | 0.695 | 0.584 | 0.661 | 0.832 | 0.675 | 0.844 | 0.431 | 0.721
HCC-44 | 1.06 | 0.879 | 0.856 | 0.97 | 1.07 | 0.897 | 1.2 | 1.13 | 0.743 | 0.792 | 1.02 | 0.815 | 0.615 | 0.472 | 0.752 | 0.898 | 0.798 | 0.951 | 1.09 | 0.976
HCC-78 | – | – | – | – | 0.64 | 0.541 | 0.624 | 0.981 | 0.656 | – | 0.825 | 0.206 | 0.188 | – | 0.224 | 0.479 | 0.423 | 0.586 | 0.588 | 0.395
